Test results published in ChEMBL document CHEMBL5032490, “Neuroactive Type-A γ-Aminobutyric Acid Receptor Allosteric Modulator Steroids from the Hypobranchial Gland of Marine Mollusk, Conus geographus” (J Med Chem, 2021).
The source made the active and inactive calls.

Key:
[1] = test system: Neuron; assay: Negative allosteric modulation of human GABA receptor expressed in mouse DRG neurons assessed as inhibition of 340 nM GABA-induced responses at 0.5 uM using c-LTMRS; type: tissue-based; conditions: filed as negative allosteric modulator
[2] = test system: Neuron; assay: Negative allosteric modulation of mouse GABA receptor in mouse C-low-threshold mechanoreceptive DRG neurons assessed as inhibition of KCl-induced response at 40 uM; type: tissue-based; conditions: filed as negative allosteric modulator
[3] = test system: Mus musculus; assay: Antinociception activity in mouse model assessed as reduction in thermal hypersensitivity at 2 to 50 mg/kg, ip by hot plate test; type: functional, organism-based; conditions: dose 2-50 mg/kg
[4] = test system: Mus musculus; assay: Antinociceptive activity in mouse assessed as total number of responses at 2 to 50 mg/kg, ip by Von Frey test; type: functional, organism-based; conditions: dose 2-50 mg/kg
[5] = Induction of cytosolic calcium ion concentration in mouse peptidergic nociceptive DRG neuron at 10 uM measured after 1 hr by Fura2AM dye based fluorescence microscopic analysis; type: functional
[6] = test system: HEK; assay: Negative allosteric modulation of human GABA receptor expressed in HEK cells assessed as inhibition of GABA-induced current in presence of EC20 concentration of GABA by patch clamp method; type: cell-based; conditions: filed as negative allosteric modulator
[7] = Induction of cytosolic calcium ion concentration in mouse non-peptidergic nociceptive DRG neuron at 10 uM measured after 1 hr by Fura2AM dye based fluorescence microscopic analysis; type: functional
[8] = test system: Neuron; assay: Negative allosteric modulation of human GABA receptor expressed in mouse DRG neurons assessed as inhibition of 340 nM GABA-induced responses at 0.5 uM using cold thermo-sensors; type: tissue-based; conditions: filed as negative allosteric modulator
[9] = test system: Neuron; assay: Negative allosteric modulation of human GABA receptor expressed in mouse DRG neurons assessed as inhibition of 500 nM GABA-induced response at 0.5 uM; type: tissue-based; conditions: filed as negative allosteric modulator
[10] = Induction of ATP and Kcl-induced increase in cytosolic Ca2+ ion concentration mouse peptidergic nociceptive DRG neuron assessed as neuron population at 10 uM measured after 1 hr by Fura2AM dye based fluorescence microscopic analysis; type: functional
[11] = Reduction of ATP and Kcl-induced increase in cytosolic Ca2+ ion concentration mouse DRG other neuron subtype assessed as neuron population at 10 uM measured after 1 hr by Fura2AM dye based fluorescence microscopic analysis; type: functional; parameters: scale not given: the % may be the effect or the level left
[12] = Induction of ATP and Kcl-induced increase in cytosolic Ca2+ ion concentration mouse […] assessed as neuron population at 10 uM measured after 1 hr by Fura2AM dye based fluorescence microscopic analysis; type: functional
[13] = Induction of ATP and Kcl-induced increase in cytosolic Ca2+ ion concentration mouse DRG other neuron subtype assessed as neuron population at 10 uM measured after 1 hr by Fura2AM dye based fluorescence microscopic analysis; type: functional
[14] = test system: Mus musculus; assay: Antinociceptive activity in C57BL6 mouse model of inflammatory pain assessed as total number of responses during second phase at 2 to 50 mg/kg, ip administered by formalin test; type: functional, organism-based; conditions: dose 2-50 mg/kg
[15] = test system: Neuron; assay: Negative allosteric modulation of mouse GABA receptor in mouse non-peptidergic nociceptive DRG neurons assessed as inhibition of KCl-induced response at 10 uM; type: tissue-based; conditions: filed as negative allosteric modulator

In the case of CC(C)CCC[C@@H](C)[C@H]1CC[C@H]2[C@@H]3C(=O)C=C4C=CCC[C@]4(C)[C@H]3CC[C@]12C, the Activity [1] was “Active”, the Activity [2] was “Active” and the Activity [3] was “Active”. The Activity [4] was “Active”, the Activity [5] was 33% and the Activity [6] was “Active”. The Activity [7] was 27%, the Activity [8] was “Active” and the Activity [9] was “Active”. It also gave an Activity [10] of 56%, an Activity [11] of 5% and an Activity [12] of 4%. For the same compound, the Activity [13] was 7%, the Activity [14] was “inactive” and the Activity [15] was “Active”.
